Experimental data taken from ChEMBL document CHEMBL4480448, “In Situ Ring Contraction and Transformation of the Rhizoxin Macrocycle through an Abiotic Pathway” (J Nat Prod, 2019).
Activity calls are given as the source filed them.

How the values were obtained:
Assay type in all cases: functional, cell-based
A673 = assay: Cytotoxicity against human A673 cells assessed as reduction in cell viability at 2 uM after 48 hrs by SRB assay
SK-ES1 = assay: Cytotoxicity against human SK-ES-1 cells assessed as reduction in cell viability at 2 uM after 48 hrs by SRB assay
Hep293TT = assay: Cytotoxicity against human Hep293TT cells assessed as reduction in cell viability at 2 uM after 48 hrs by SRB assay
Homo sapiens [1] = organism: Homo sapiens; assay: Cytotoxicity against human SJCRH30 cells assessed as reduction in cell viability at 2 uM after 48 hrs by SRB assay
Homo sapiens [2] = organism: Homo sapiens; assay: Cytotoxicity against human D283 cells assessed as reduction in cell viability at 2 uM after 48 hrs by SRB assay
TC-32 = assay: Cytotoxicity against human TC32 cells assessed as reduction in cell viability at 2 uM after 48 hrs by SRB assay

Measured: Activity

COC(=O)C[C@H]1C[C@@H](O)[C@H](C)[C@@H](O)/C=C/[C@](C)(O)[C@@H](O)C[C@@H]([C@H](C)[C@@H](OC)/C(C)=C/C=C/C(C)=C/c2coc(C)n2)OC(=O)[C@@H]2O[C@H]2C1
inactive: A673 | SK-ES1 | Hep293TT | Homo sapiens [1] | Homo sapiens [2] | TC-32

CO[C@@H](/C(C)=C/C=C/C(C)=C/c1coc(C)n1)[C@@H](C)[C@@H]1C[C@H](O)[C@H](C(C)=O)/C=C/[C@@H](C)[C@H]2C[C@H](CC(=O)O2)C[C@@H]2O[C@H]2C(=O)O1
inactive: A673 | SK-ES1 | Hep293TT | Homo sapiens [1] | Homo sapiens [2] | TC-32

CO[C@@H](/C(C)=C/C=C/C(C)=C/c1coc(C)n1)[C@@H](C)[C@@H]1C[C@H](O)[C@@](C)(O)[C@@H](O)/C=C/[C@@H](C)[C@H]2C[C@H](CC(=O)O2)C[C@@H]2O[C@H]2C(=O)O1
inactive: A673 | SK-ES1 | Hep293TT | Homo sapiens [1] | Homo sapiens [2] | TC-32

CO[C@@H](/C(C)=C/C=C/C(C)=C/c1coc(C)n1)[C@@H](C)[C@@H]1C[C@H](O)[C@@](C)(O)[C@H](O)/C=C/[C@@H](C)[C@H]2C[C@H](CC(=O)O2)C[C@@H]2O[C@H]2C(=O)O1
inactive: A673 | SK-ES1 | Hep293TT | Homo sapiens [1] | Homo sapiens [2] | TC-32

CO[C@@H](/C(C)=C/C=C/C(C)=C/c1coc(C)n1)[C@@H](C)[C@@H]1C[C@H](O)[C@@](C)(O)/C=C/[C@H](O)[C@@H](C)[C@H]2C[C@H](CC(=O)O2)C[C@@H]2O[C@H]2C(=O)O1
inactive: A673 | SK-ES1 | Hep293TT | Homo sapiens [1] | Homo sapiens [2] | TC-32
